The text below walks through data of patent US12037346B2, “Amino-substituted heteroaryls for treating cancers with EGFR mutations” (Nuvalent, Inc., priority 2021, dated 2024).

Holding throughout (type): cell-based
Assay [1] concerns A431 cells (amplification of the wild-type EGFR gene), phospho-ERK Thr202/Tyr204. Nature of the assay: Cellular phosphorylation assay, pERK (phospho-ERK Thr202/Tyr204 AlphaLISA) in A431. The settings on record: Homo sapiens, A-431, compound incubated for 5 hours. Here is the method:
(§1) Besides Ba/F3s, two commercially available cell lines were also used. NCI-H1781 is a HER2 exon20 insertion cell line bearing HER2-A775_G776insV-G776C. A431 bears amplification of the wild-type EGFR gene.
(§2) Ba/F3 cells were plated at 50,000 cells/well (40 μL), or NCI-H1781 cells or A431 cells were plated at 12,500 cells/well (40 μL), in a 384-well plate for 1 day. Test compounds (40 nL) were then added in a 3-fold dilution series using the TECAN EV0200 liquid handler and incubated for 5 hours. Only for pEGFR analysis in A431, the cells were briefly stimulated with EGF (30 ng/mL) for 15 minutes. Media were removed using Apricot Designs. Phosphoproteins were analyzed using the phospho-EGFR Tyr1068 AlphaLISA kit (“pEGFR”; PerkinElmer #ALSU-PEGFR-B10K;) phospho-ERK Thr202/Tyr204 AlphaLISA kit (“pERK”; PerkinElmer #ALSU-PERK-A10K) or the phospho-ErbB2 Tyr1221/1222 AlphaLISA kit (“pHER2”; PerkinElmer #ALSU-PEB2-A10K;) according to the manufacturer's instructions. Briefly, cells were lysed with lysis buffer (10 μL) containing protease-inhibitor and phosphatase-inhibitor cocktails. The lysates were transferred into a new optical plate, incubated with the acceptor mix (5 μL) for 1.5-2 hours at room temperature in darkness, and then mixed with the donor mix (5 μL) overnight in darkness. Fluorescence was measured on a plate reader using the appropriate AlphaLISA settings. Half-maximal inhibitory concentration (IC50) was calculated from percent inhibition and inhibitor concentration using four-parameter logistic regression. […]

For assay [2], the target named is Ba/F3 HER2-YVMA cells (HER2-A775_G776insYVMA) (Homo sapiens, UniProt P04626, DUP772-775, cells depend on it). Nature of the assay: Cell proliferation assay (CellTiter-Glo), Ba/F3 HER2-YVMA. The settings on record: read-out: Ba/F3 HER2-YVMA cell proliferation IC50. Here is the method:
The gene encoding HER2-A775_G776insYVMA (“HER2-YVMA”) was synthesized at GeneRay, cloned into the retroviral construct pMSCV-puro (Biovector), and packaged into retroviral particles. The virus was used to infect Ba/F3 cells (RIKEN) at multiplicity of infection=1 or 10 for 1 day. Infected cells were rescued in media (RPMI-1640 with 10% fetal bovine serum and 1% streptomycin and penicillin) supplemented with mouse IL-3 (10 ng/mL) for 2 days, and stable cell lines were selected by IL-3 withdrawal and puromycin (0.8 μg/mL) for 7 days. Monoclones were selected by single-cell dilution in IL-3-free medium containing puromycin ([…]). Transformation of desired genes was confirmed by Sanger sequencing and western blot using the following antibody: HER2 (CST #2242).
(§3) Ba/F3 cells were plated at 1,000 cells/well (40 μL), or NCI-H1781 or A431 cells were plated at 2,000 cells/well (40 μL), in a 384-well plate for 1 day. Test compounds (40 nL) were then added in a 3-fold dilution series using the TECAN EV0200 liquid handler and incubated for 48 hours (“2 days”), 72 hours (“3 days”), or 48 hours followed by renewal of compound solutions and further incubation for 72 hours (“2 days/3 days”). The 72-hour assay was necessary for NCI-H1781 cells, which are slow-growing, and the resupply of fresh compounds on day 3 obviated the potential confounding effects arising from compound degradation in cell media over 72 hours. Plates were equilibrated at room temperature for 15 minutes followed by addition of 40 μL CellTiter-Glo reagent (Promega). Luminescence was measured on a plate reader. Half-maximal inhibitory concentration (IC50) was calculated from percent inhibition and inhibitor concentration using four-parameter logistic regression. […] In these cases, the regression curve was drawn only for the first inflexion to accurately measure on-target growth inhibitory effect.
(§4) Ba/F3, NCI-H1781, and A431 proliferation is driven by the oncogenes in the same way that cancer cell proliferation in humans is driven by the expression of equivalent oncogenes.

For assay [3], the system named is NCI-H1781 cells (HER2-A775_G776insV-G776C). The assay is described as follows: Cell proliferation assay (CellTiter-Glo), NCI-H1781. The settings on record: first inflexion of biphasic curve. Here is the method:
as §1, §3, §4

Assay [4] has as its target T1, wild-type EGFR (A431 cells) (Homo sapiens, UniProt P00533).
T1 construct: A431 bears amplification of the wild-type EGFR gene; endogenous in cells; host or cells: A431
Nature of the assay: Cellular phosphorylation assay, pEGFR (phospho-EGFR Tyr1068 AlphaLISA) in A431. The settings on record: compound incubated for 5 hours, EGF (30 ng/mL) for 15 minutes. How it is done: as §1, §2

Ba/F3 HER2-YVMA cells (HER2-A775_G776insYVMA), sequence (P04626 with tags, fused parts or gaps DUP772-775): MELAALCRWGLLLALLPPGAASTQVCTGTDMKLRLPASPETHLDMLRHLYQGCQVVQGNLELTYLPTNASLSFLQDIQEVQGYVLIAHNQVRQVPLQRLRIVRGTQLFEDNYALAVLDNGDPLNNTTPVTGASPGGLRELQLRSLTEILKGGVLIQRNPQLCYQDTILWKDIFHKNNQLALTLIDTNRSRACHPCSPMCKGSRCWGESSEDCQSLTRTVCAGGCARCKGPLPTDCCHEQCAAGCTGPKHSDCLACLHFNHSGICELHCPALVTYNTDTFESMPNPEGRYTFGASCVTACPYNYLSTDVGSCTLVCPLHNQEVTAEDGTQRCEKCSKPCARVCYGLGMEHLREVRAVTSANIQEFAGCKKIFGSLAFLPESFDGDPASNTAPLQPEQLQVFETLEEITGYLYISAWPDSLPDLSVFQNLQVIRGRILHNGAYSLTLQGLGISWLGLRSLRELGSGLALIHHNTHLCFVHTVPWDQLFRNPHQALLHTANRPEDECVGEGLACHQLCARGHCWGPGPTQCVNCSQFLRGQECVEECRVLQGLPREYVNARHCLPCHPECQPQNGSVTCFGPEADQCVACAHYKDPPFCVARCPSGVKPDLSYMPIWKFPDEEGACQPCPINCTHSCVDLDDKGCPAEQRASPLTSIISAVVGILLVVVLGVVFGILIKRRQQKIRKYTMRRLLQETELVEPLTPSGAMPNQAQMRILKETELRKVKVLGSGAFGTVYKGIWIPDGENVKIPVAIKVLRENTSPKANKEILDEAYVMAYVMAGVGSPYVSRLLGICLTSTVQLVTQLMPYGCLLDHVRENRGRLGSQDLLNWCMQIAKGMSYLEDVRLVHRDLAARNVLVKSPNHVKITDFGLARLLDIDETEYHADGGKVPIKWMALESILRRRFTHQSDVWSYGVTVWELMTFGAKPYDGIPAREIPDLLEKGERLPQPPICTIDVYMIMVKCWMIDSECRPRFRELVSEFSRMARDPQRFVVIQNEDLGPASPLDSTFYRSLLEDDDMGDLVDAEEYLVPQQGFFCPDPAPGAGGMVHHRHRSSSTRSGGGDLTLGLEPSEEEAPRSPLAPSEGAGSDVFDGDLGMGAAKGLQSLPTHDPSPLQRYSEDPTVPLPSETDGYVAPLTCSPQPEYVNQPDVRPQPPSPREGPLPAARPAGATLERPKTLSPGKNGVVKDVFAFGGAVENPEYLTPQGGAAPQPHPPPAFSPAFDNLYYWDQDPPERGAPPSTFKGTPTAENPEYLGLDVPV
T1 sequence (P00533 25-1210): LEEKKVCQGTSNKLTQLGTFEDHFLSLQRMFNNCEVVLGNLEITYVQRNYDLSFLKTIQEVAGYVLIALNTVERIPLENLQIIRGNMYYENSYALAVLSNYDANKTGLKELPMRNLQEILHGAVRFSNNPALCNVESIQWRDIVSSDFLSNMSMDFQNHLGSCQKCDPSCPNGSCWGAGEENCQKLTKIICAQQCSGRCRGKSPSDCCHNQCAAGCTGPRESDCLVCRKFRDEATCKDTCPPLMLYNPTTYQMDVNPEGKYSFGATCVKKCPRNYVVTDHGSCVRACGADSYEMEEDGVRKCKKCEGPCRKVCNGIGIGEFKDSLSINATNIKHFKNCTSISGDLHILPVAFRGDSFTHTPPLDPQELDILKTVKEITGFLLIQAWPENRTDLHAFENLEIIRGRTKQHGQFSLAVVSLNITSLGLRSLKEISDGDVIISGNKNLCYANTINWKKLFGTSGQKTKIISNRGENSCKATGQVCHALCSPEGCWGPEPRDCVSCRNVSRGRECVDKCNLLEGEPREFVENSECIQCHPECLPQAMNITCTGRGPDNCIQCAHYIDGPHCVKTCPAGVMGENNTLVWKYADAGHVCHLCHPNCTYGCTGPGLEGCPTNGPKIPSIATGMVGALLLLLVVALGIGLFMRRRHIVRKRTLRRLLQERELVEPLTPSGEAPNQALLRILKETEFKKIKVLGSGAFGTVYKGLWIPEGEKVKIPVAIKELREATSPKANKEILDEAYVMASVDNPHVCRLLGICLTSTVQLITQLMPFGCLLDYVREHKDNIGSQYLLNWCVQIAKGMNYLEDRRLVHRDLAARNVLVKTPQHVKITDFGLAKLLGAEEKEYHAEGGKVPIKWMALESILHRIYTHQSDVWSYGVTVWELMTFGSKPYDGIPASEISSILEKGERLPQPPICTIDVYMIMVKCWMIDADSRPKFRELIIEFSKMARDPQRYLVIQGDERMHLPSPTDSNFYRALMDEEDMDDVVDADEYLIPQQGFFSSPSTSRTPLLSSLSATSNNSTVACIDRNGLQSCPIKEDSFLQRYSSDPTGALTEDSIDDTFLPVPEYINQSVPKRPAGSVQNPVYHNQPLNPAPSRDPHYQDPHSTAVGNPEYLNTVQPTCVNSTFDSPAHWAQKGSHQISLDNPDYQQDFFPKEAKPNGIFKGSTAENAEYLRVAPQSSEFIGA

As to `C=CC(=O)N1CCN(c2ncc3ncnc(Nc4ccc(Oc5ccn6ncnc6c5)c(C)c4F)c3n2)[C@H](C)[C@@H]1C` (relative stereo) [Example 40], the IC50 in assay [1], in assay [3] and in assay [4] was below 100 nM each time. Besides, the GI50 in assay [2] is below 100 nM.
On to `C=CC(=O)N1CCN(c2ccc3ncnc(Nc4ccc(Oc5ccn6ncnc6c5)c(C)c4)c3n2)C[C@H]1C` [Example 6], for which the IC50 in assay [1] is 100 to 500 nM; in assay [3], below 100 nM; in assay [4] it was 100 to 500 nM. The GI50 in assay [2] was below 100 nM.
Consider `Cc1cc(Nc2ncnc3ccc(N4CCN(C(=O)/C=C/CN(C)C)CC4)nc23)ccc1Oc1ccn2ncnc2c1` [Example 7], for which the IC50 in assay [1] is 100 to 500 nM; in assay [3] it was below 100 nM; in assay [4] it was 100 to 500 nM. Further, the GI50 in assay [2] was below 100 nM.
For `C=CC(=O)N1CCN(c2ccc3ncnc(Nc4ccc(Oc5ccn6ncnc6c5)c(C)c4)c3n2)C(=O)C1` [Example 8], the IC50 in assay [1] was at least 1000 nM; in assay [3] it was below 100 nM; in assay [4], at least 1000 nM. For the same compound, the GI50 in assay [2] was below 100 nM.
On to `C=CC(=O)N1CC=C(c2ccc3ncnc(Nc4ccc(Oc5cc(OC)n6ncnc6c5)c(C)c4)c3n2)CC1` [Example 15], for which the IC50 was at least 1000 nM in assay [1], 100 to 500 nM in assay [3] and at least 1000 nM in assay [4]. The GI50 in assay [2] was below 100 nM.
Consider `C=CC(=O)N1CC=C(c2ccc3ncnc(Nc4ccc(Oc5cc(Cl)n6ncnc6c5)c(C)c4)c3n2)CC1` [Example 16], for which the IC50 lay within 500 to 1000 nM in assay [1], 100 to 500 nM in assay [3] and 500 to 1000 nM in assay [4]. The GI50 in assay [2] was below 100 nM.
For `C=CC(=O)N1CC=C(c2ccc3ncnc(Nc4ccc(Oc5cc(C)n6ncnc6c5)c(C)c4)c3n2)CC1` [Example 17], the figures for the IC50 in assay [1], in assay [3] and in assay [4] were at least 1000 nM, below 100 nM and at least 1000 nM, respectively. The GI50 in assay [2] is below 100 nM.
`C=CC(=O)N1CCN(c2ccc3ncnc(Nc4ccc(Oc5ccn6ncnc6c5)c(C)c4)c3c2OC)CC1` [Example 20]: the IC50 in assay [1] was at least 1000 nM; in assay [3], below 100 nM; in assay [4], at least 1000 nM. Further, in assay [2], the GI50 was below 100 nM.
`C=CC(=O)N1CCN(c2ccc3ncnc(Nc4ccc(Oc5ccn6ncnc6c5)c(C)c4)c3n2)[C@@H](C)C1` [Example 22]: the IC50 in assay [1] is 500 to 1000 nM; in assay [3] it was below 100 nM; in assay [4], at least 1000 nM. Moreover, the GI50 in assay [2] is below 100 nM.
As to `C=C(F)C(=O)N1CC=C(c2ccc3ncnc(Nc4ccc(Oc5ccn6ncnc6c5)c(C)c4)c3n2)CC1` [Example 31], the IC50 in assay [1], in assay [3] and in assay [4] was at least 1000 nM each time. Further, the GI50 in assay [2] is at least 1000 nM.
On to `C=CC(=O)N1CCN(c2ncc3ncnc(Nc4cc(C)c(Oc5ccn6ncnc6c5)cc4F)c3n2)[C@@H](C)C1` [Example 35], for which the IC50 in assay [1] is at least 1000 nM; in assay [3], 100 to 500 nM; in assay [4], at least 1000 nM. Also, the GI50 in assay [2] was below 100 nM.
With `C=CC(=O)N1CCN(c2ncc3ncnc(Nc4cc(C)c(Oc5ccn6ncnc6c5)cc4F)c3n2)C[C@@H]1C` [Example 36], the IC50 in assay [1] is at least 1000 nM; in assay [3] it was 100 to 500 nM; in assay [4], at least 1000 nM. The GI50 in assay [2] lay within 100 to 500 nM.
For the compound `C=CC(=O)N1CC=C(c2ncc3ncnc(Nc4ccc(Oc5ccn6ncnc6c5)c(C)c4F)c3n2)CC1` [Example 37], the IC50 in assay [1] was at least 1000 nM; in assay [3] it was below 100 nM; in assay [4], 500 to 1000 nM. Also, in assay [2], the GI50 was below 100 nM.
`C=CC(=O)N1CCN(c2ncc3ncnc(Nc4ccc(Oc5ccn6ncnc6c5)c(C(F)(F)F)c4F)c3n2)C[C@H]1C` [Example 39]: the IC50 is at least 1000 nM in assay [1], 500 to 1000 nM in assay [3] and at least 1000 nM in assay [4]. Besides, the GI50 in assay [2] lay in the range of 100 to 500 nM.
